{
  "source": "paper PMC12587574",
  "about": "“Mass balance, pharmacokinetics, metabolism, and excretion of radiolabeled acoziborole, a potential novel treatment for human African trypanosomiasis, following single microtracer oral dose to humans” (Antimicrobial Agents and Chemotherapy, 2025)",
  "key": {"[1]": {"test": "Metabolite profiling and identification in pools of plasma, urine and feces (UPLC-MS, AMS)", "assay_type": "in vivo, human", "method": "Individual pools of plasma (0–336 h, including time points at 1, 4, 9, 12, 24, 48, 72, 96, 120, 168, 240, and 336 h), urine (0–240 h, including time intervals 0–6, 6–12, 12–24, 24–48, 48–72, 72–96, 96–120, 120–168, 168–192, 192–216, and 216–240 h) and feces homogenates (0–240 h, including time intervals 0–6, 6–12, 12–24, 24–48, 48–72, 72–96, 96–120, 120–168, and 168–240 h) were prepared; for plasma this was done according to the method described in reference and for feces by using equal percentages per time point based on total volume. Subsequently, a pool per matrix was prepared by mixing equal volumes of each participant pool. In addition, a plasma pre-dose pool was prepared by mixing equal volumes of each pre-dose sample. For urine and feces, TNO blank pool was used to generate a pre-dose sample. Samples were stored below −18°C. Samples (100 µL plasma, 250 µL urine, and 200 mg feces) were pre-treated and injected onto an ultra-high performance liquid chromatography (UPLC)-MS system (Acquity UPLC system [Waters] coupled to a Q-Exactive [Thermo]; Acquity HSS C18 VanGuard 5 mm × 2.1 mm, 1.8 µm [Waters] pre-column and Acquity HSS C18 100 mm × 2.1 mm, 1.8 µm d.p. [Waters]). Fractions were collected and analyzed off-line by AMS. AMS analysis was performed on an AMS system, consisting of an elemental analyzer, a double gas interface, and a 1 MV multi-element AMS. All fecal homogenate sample analyzes were performed in triplicate. Plasma pre-dose and TNO blank urine and feces pools were used for background correction. The UPLC method qualification included determination of retention time stability and extraction recovery. Metabolites were tentatively assigned to fractions in which activity greater than the baseline was observed, based on retention time and structural information provided by DNDi. Presence of the metabolite was confirmed by accurate mass data from high-resolution mass spectrometric analysis."}, "[2]": {"design": "method as in PMID 36763327", "settings": "human, after acoziborole; cited from earlier work"}, "[3]": {"test": "Urinary excretion / renal clearance of acoziborole and SCYX-3109 by LC-MS/MS", "assay_type": "in vivo", "settings": "male, human, urine and plasma; CumAe0–240h/AUC0–240h; mean ± SD; 960 mg single oral dose of acoziborole; read-out: renal clearance CLr0–240h (converted)", "method": "Urine samples were collected before IP administration (single urine void) and then during intervals of 0–6, 6–12, 12–24, 24–48, 48–72, 72–96, 96–120, 120–168, 168–192, 192–216, and 216–240 h post-dose and for the additional 48-h collection period starting on Day 15 post-dose, that is, 336–384 h. Samples were acidified with citric acid to avoid acoziborole degradation and were refrigerated until the end of the block collection periods. The total weight and volume of urine were then recorded. At the end of each collection period, two aliquots of acidified urine (20 mL) were taken from the sample and stored in polypropylene tubes at −20°C until further analysis for total radioactivity. Two aliquots of 1 mL acidified urine were collected into tubes containing bovine serum albumin in aqueous solution (to avoid non-specific adsorption of acoziborole) and NaCl for acoziborole and SCYX-3109 assays. […]\nSGS Belgium (Wavre, Belgium) performed the analysis to determine acoziborole and SCYX-3109 concentrations, using validated bioanalytical assays with liquid chromatography with tandem mass spectrometry (LC-MS/MS) with a Supelco Ascentis Express C8, 2.7 µm, 50 × 2.1 mm I.D. separation column. In plasma, the lower limit of quantification (LLOQ) was 25 ng/mL for acoziborole and 10 ng/mL for SCYX-3109. […]"}, "[4]": {"test": "Plasma pharmacokinetics of acoziborole and SCYX-3109 by LC-MS/MS, phase I mass balance study", "assay_type": "in vivo, human", "method": "This single-center, open-label, single group, non-randomized, single oral dose study was performed at Quotient Sciences Ltd (Ruddington, Nottingham, UK). Clinical trial authorization was obtained from the Medicines and Healthcare Products Regulatory Agency (UK). Approval for administration of [^14C]-acoziborole was obtained from an expert committee sponsored by the Department of Health and Social Care in the United Kingdom (Administration of Radioactive Substances Advisory Committee [ARSAC]), and from the ARSAC-accredited Quotient Sciences’ nuclear medicine practitioner. This study was approved by a local research ethics committee in the United Kingdom and was conducted in compliance with the Declaration of Helsinki and the International Conference on Harmonisation E6 Guideline for Good Clinical Practice. The study was registered in clinicaltrials.gov (NCT04270981) and in EudraCT (reference 2019-004059-35). Written informed consent was obtained from all participants before undertaking any study-related procedures.\nParticipants were admitted in the evening of the day before dosing (Day −1) and were dosed in the morning of Day 1, following an overnight fast from food and drink of a minimum of 9 h. They remained fasted until approximately 4 h post-dose, at which time lunch was provided. Participants remained resident in the clinic until up to 240 h after dosing (up to Day 11). […] However, due to the COVID-19 pandemic, instead of returning for the outpatient visits, participants were requested to perform home collection of feces for a 48-h period (i.e., Days 31–33, Days 59–61, Days 89–91, and Days 119–121). Collected samples were couriered to the clinical unit at the end of each collection period. A follow-up call took place 5–10 days after the final outpatient visit to ensure the well-being of participants.\nVenous blood samples were collected via an indwelling cannula or by venepuncture. A 12 mL sample was taken into heparinized glass tube and chilled on ice immediately before IP administration and 3 mL samples were taken at 1, 4, 9, 12, 24, 48, 72, 96, 120, 144, 168, and 240 h and on Days 15, 31, 59, 89, and 119 after IP administration. The first 0.5 mL of blood withdrawn via cannula was discarded. One aliquot of heparinized whole blood (1 mL) per time point was stored at or below −20°C for total radioactivity analysis. The remaining blood was centrifuged, and the harvested plasma was stored at approximately −20°C for bioanalysis or transferred (exactly 1 mL) into polypropylene tubes pre-filled with 5 µL formic acid. One plasma sample (0.5 mL) was used for metabolite profiling while another (0.5 mL) was used for parent drug and SCYX-3109 metabolite analysis. The remaining plasma was used for total radioactivity analysis.\nSGS Belgium (Wavre, Belgium) performed the analysis to determine acoziborole and SCYX-3109 concentrations, using validated bioanalytical assays with liquid chromatography with tandem mass spectrometry (LC-MS/MS) with a Supelco Ascentis Express C8, 2.7 µm, 50 × 2.1 mm I.D. separation column. In plasma, the lower limit of quantification (LLOQ) was 25 ng/mL for acoziborole and 10 ng/mL for SCYX-3109. In urine, the LLOQ was 10 ng/mL for both acoziborole and SCYX-3109.\nPK parameters were calculated based on actual sampling times using standard non-compartmental analysis and WinNonlin version 8.1 software (Certara, Princeton, NJ, USA).\nThe SCYX-3109 to parent ratios were calculated based on Cmax and AUC0–∞."}, "[5]": {"design": "method as in PMID 21707314", "settings": "cited from earlier work"}},
  "note": "Like-named read-outs stand apart in the source and are kept apart here.",
  "data": [
    {"smiles": "CC(C)(O)c1ccc(NC(=O)c2ccc(F)cc2C(F)(F)F)cc1O", "note": "[SCYX-3109]", "values": [
      {"measurement": "proportion of the dose excreted, urine and feces combined", "setting": "[1]; 0–240 h pools", "result": 12.3, "unit": "%"},
      {"measurement": "abundance relative to dose, feces", "setting": "[1]; feces homogenates 0–240 h", "result": 12.3, "unit": "%"},
      {"measurement": "relative abundance in radiochromatogram, feces homogenates pool", "setting": "[1]; feces homogenates 0–240 h", "result": 24.2, "unit": "%"},
      {"measurement": "relative abundance in radiochromatogram (share of total radioactivity), plasma pool", "setting": "[1]; plasma pool 0–336 h, 960 mg single oral [14C]-acoziborole", "result": "could not be detected"},
      {"measurement": "plasma concentrations at all time points", "setting": "[2]", "result": "very low"},
      {"measurement": "CL renal", "setting": "[3]", "result": 0.6, "unit": "mL/min"},
      {"measurement": "AUC(0-t)", "setting": "[4]; human, plasma, po, 960 mg, 960 mg single oral dose of acoziborole, N = 6, mean ± SD, read-out: AUC0–240h in plasma", "result": "4370 ± 1020", "unit": "ng·h/mL"},
      {"measurement": "AUC(0-t)", "setting": "[4]; human, plasma, po, 960 mg, 960 mg single oral dose of acoziborole, N = 6, mean ± SD, read-out: AUC0–t in plasma", "result": "3730 ± 2320", "unit": "ng·h/mL"},
      {"measurement": "Tmax", "setting": "[4]; human, plasma, po, 960 mg, 960 mg single oral dose of acoziborole, N = 6, mean ± SD, read-out: tmax in plasma", "result": "76.1 ± 28", "unit": "h"},
      {"measurement": "Cmax", "setting": "[4]; male, human, plasma, 960 mg single oral dose of acoziborole, healthy males, N = 6, mean ± SD", "result": "30.5 ± 10.7", "unit": "ng/mL"},
      {"measurement": "plasma level relative to acoziborole, AUC0–240h ratio", "setting": "[4]; over the 240-h period, 960 mg single oral dose", "result": 0.2, "unit": "%"},
      {"measurement": "activity of the metabolite", "setting": "[5]", "result": "inactive"}
    ]}
  ]
}
